Laboratory results from ChEMBL document CHEMBL4382260, “Synthesis and biological evaluation as antiangiogenic agents of ureas derived from 3'-aminocombretastatin A-4” (Eur J Med Chem, 2019).
Each block holds one molecule with its values, some of them ahead of it. The source made the active and inactive calls. The rule behind the calls is not given here.

How the values were obtained:
Tubulin (Homo sapiens) [1] = target: T1, Tubulin (Homo sapiens) (UniProt P68371+Q9H4B7+P0DPH7+P68366+Q13509+Q71U36+P04350+Q3ZCM7+P07437+P68363+Q9BQE3+Q6PEY2+Q13885+Q9BVA1+Q9BUF5); assay: Disruption of microtubule network in human A549 cells assessed as compressed and fragmented nuclei at […] after 16 hrs by Hoechst staining based immunofluorescence microscopic method; format: cell-based
[2] = target: Vascular endothelial growth factor receptor 2 (Homo sapiens) (UniProt P35968); assay: Inhibition of VEGFR2 internalization in HMEC1 cells assessed as membrane VEGFR2 level at 0.6 uM after 24 hrs by flow cytometry (reference value: 100%); format: cell-based; set-up: scale not given: the % may be the effect or the level left
[3] = target: Vascular endothelial growth factor receptor 2 (Homo sapiens) (UniProt P35968); assay: Inhibition of VEGFR2 internalization in HMEC1 cells assessed as total VEGFR2 level at 0.6 uM after 24 hrs by flow cytometry (reference value: 100%); format: cell-based; set-up: scale not given: the % may be the effect or the level left
[4] = target: Vascular endothelial growth factor receptor 2 (Homo sapiens) (UniProt P35968); assay: Inhibition of VEGFR2 internalization in HMEC1 cells at 0.6 uM after 24 hrs by immunofluorescence assay; format: cell-based
[5] = target: Vascular endothelial growth factor receptor 2 (Homo sapiens) (UniProt P35968); assay: Inhibition of VEGFR2 internalization in human A549 cells at […] after 24 hrs by immunofluorescence assay; format: cell-based
HL-60 = assay: Antiproliferative activity against human HL60 cells by MTT assay; format: functional, cell-based
A549 [6] = assay: Induction of apoptosis in human A549 cells at 100 uM after 20 to 24 hrs by Annexin V-FITC/propidium iodide staining based flow cytometry (reference value: 16%); format: functional
A549 [7] = assay: Induction of apoptosis in human A549 cells at 50 uM after 20 to 24 hrs by Annexin V-FITC/propidium iodide staining based flow cytometry (reference value: 16%); format: functional
HMEC-1 = assay: Antiangiogenic activity against HMEC1 cells after 20 hrs by tube formation assay; conditions: Homo sapiens, HMEC-1, 20 h
[8] = target: Vascular endothelial growth factor receptor 2 (Homo sapiens) (UniProt P35968); assay: Inhibition of VEGFR2 internalization in HMEC1 cells assessed as membrane VEGFR2 level at […] after 24 hrs by flow cytometry (reference value: 100%); format: cell-based; set-up: scale not given: the % may be the effect or the level left
[9] = target: Vascular endothelial growth factor receptor 2 (Homo sapiens) (UniProt P35968); assay: Inhibition of VEGFR2 internalization in HMEC1 cells assessed as total VEGFR2 level at […] after 24 hrs by flow cytometry (reference value: 100%); format: cell-based; set-up: scale not given: the % may be the effect or the level left
[10] = target: Vascular endothelial growth factor receptor 2 (Homo sapiens) (UniProt P35968); assay: Inhibition of VEGFR2 internalization in HMEC1 cells assessed as membrane VEGFR2 level at 15 uM after 24 hrs by flow cytometry (reference value: 100%); format: cell-based; set-up: scale not given: the % may be the effect or the level left
[11] = target: Vascular endothelial growth factor receptor 2 (Homo sapiens) (UniProt P35968); assay: Inhibition of VEGFR2 internalization in HMEC1 cells assessed as total VEGFR2 level at 15 uM after 24 hrs by flow cytometry (reference value: 100%); format: cell-based; set-up: scale not given: the % may be the effect or the level left
[12] = target: Vascular endothelial growth factor receptor 2 (Homo sapiens) (UniProt P35968); assay: Inhibition of VEGFR2 internalization in HMEC1 cells at 15 uM after 24 hrs by immunofluorescence assay; format: cell-based
[13] = target: Vascular endothelial growth factor receptor 2 (Homo sapiens) (UniProt P35968); assay: Inhibition of VEGFR2 internalization in human A549 cells at 44 uM after 24 hrs by immunofluorescence assay; format: cell-based
[14] = target: Vascular endothelial growth factor receptor 2 (Homo sapiens) (UniProt P35968); assay: Inhibition of VEGFR2 internalization in HMEC1 cells assessed as membrane VEGFR2 level at 120 uM after 24 hrs by flow cytometry (reference value: 100%); format: cell-based; set-up: scale not given: the % may be the effect or the level left
[15] = target: Vascular endothelial growth factor receptor 2 (Homo sapiens) (UniProt P35968); assay: Inhibition of VEGFR2 internalization in HMEC1 cells assessed as total VEGFR2 level at 120 uM after 24 hrs by flow cytometry (reference value: 100%); format: cell-based; set-up: scale not given: the % may be the effect or the level left
[16] = target: Vascular endothelial growth factor receptor 2 (Homo sapiens) (UniProt P35968); assay: Inhibition of VEGFR2 internalization in HMEC1 cells at 120 uM after 24 hrs by immunofluorescence assay; format: cell-based
[17] = target: Vascular endothelial growth factor receptor 2 (Homo sapiens) (UniProt P35968); assay: Inhibition of VEGFR2 internalization in human A549 cells at 48 uM after 24 hrs by immunofluorescence assay; format: cell-based
Tubulin (Homo sapiens) [18] = target: T1, Tubulin (Homo sapiens); assay: Disruption of microtubule network in human A549 cells assessed as compressed and fragmented nuclei at 28 uM after 16 hrs by Hoechst staining based immunofluorescence microscopic method; format: cell-based
[19] = target: Vascular endothelial growth factor receptor 2 (Homo sapiens) (UniProt P35968); assay: Inhibition of VEGFR2 internalization in HMEC1 cells assessed as membrane VEGFR2 level at 12 uM after 24 hrs by flow cytometry (reference value: 100%); format: cell-based; set-up: scale not given: the % may be the effect or the level left
[20] = target: Vascular endothelial growth factor receptor 2 (Homo sapiens) (UniProt P35968); assay: Inhibition of VEGFR2 internalization in HMEC1 cells assessed as total VEGFR2 level at 12 uM after 24 hrs by flow cytometry (reference value: 100%); format: cell-based; set-up: scale not given: the % may be the effect or the level left
[21] = target: Vascular endothelial growth factor receptor 2 (Homo sapiens) (UniProt P35968); assay: Inhibition of VEGFR2 internalization in HMEC1 cells at 12 uM after 24 hrs by immunofluorescence assay; format: cell-based
[22] = target: Vascular endothelial growth factor receptor 2 (Homo sapiens) (UniProt P35968); assay: Inhibition of VEGFR2 internalization in human A549 cells at 28 uM after 24 hrs by immunofluorescence assay; format: cell-based
A549 [23] = assay: Cell cycle arrest in human A549 cells assessed as accumulation at subG0 phase at 22 uM after 24 hrs by propidium iodide staining based flow cytometry (reference value: 2 +/- 0.8%); format: functional
A549 [24] = assay: Cell cycle arrest in human A549 cells assessed as accumulation at G0/G1 phase at 22 uM after 24 hrs by propidium iodide staining based flow cytometry (reference value: 60 +/- 1%); format: functional
A549 [25] = assay: Cell cycle arrest in human A549 cells assessed as accumulation at S phase at 22 uM after 24 hrs by propidium iodide staining based flow cytometry (reference value: 28 +/- 0.6%); format: functional
A549 [26] = assay: Cell cycle arrest in human A549 cells assessed as accumulation at G2/M phase at 22 uM after 24 hrs by propidium iodide staining based flow cytometry (reference value: 10 +/- 0.8%); format: functional
Tubulin (Homo sapiens) [27] = target: T1, Tubulin (Homo sapiens); assay: Disruption of microtubule network in human A549 cells assessed as compressed and fragmented nuclei at 18 uM after 16 hrs by Hoechst staining based immunofluorescence microscopic method; format: cell-based
[28] = target: Vascular endothelial growth factor receptor 2 (Homo sapiens) (UniProt P35968); assay: Inhibition of VEGFR2 internalization in HMEC1 cells assessed as membrane VEGFR2 level at 8 uM after 24 hrs by flow cytometry (reference value: 100%); format: cell-based; set-up: scale not given: the % may be the effect or the level left
[29] = target: Vascular endothelial growth factor receptor 2 (Homo sapiens) (UniProt P35968); assay: Inhibition of VEGFR2 internalization in HMEC1 cells assessed as total VEGFR2 level at 8 uM after 24 hrs by flow cytometry (reference value: 100%); format: cell-based; set-up: scale not given: the % may be the effect or the level left
[30] = target: Vascular endothelial growth factor receptor 2 (Homo sapiens) (UniProt P35968); assay: Inhibition of VEGFR2 internalization in HMEC1 cells at 8 uM after 24 hrs by immunofluorescence assay; format: cell-based
[31] = target: Vascular endothelial growth factor receptor 2 (Homo sapiens) (UniProt P35968); assay: Inhibition of VEGFR2 internalization in human A549 cells at 18 uM after 24 hrs by immunofluorescence assay; format: cell-based
A549 [32] = assay: Cell cycle arrest in human A549 cells assessed as accumulation at subG0 phase at […] after 24 hrs by propidium iodide staining based flow cytometry (reference value: 2 +/- 0.8%); format: functional
A549 [33] = assay: Cell cycle arrest in human A549 cells assessed as accumulation at G0/G1 phase at […] after 24 hrs by propidium iodide staining based flow cytometry (reference value: 60 +/- 1%); format: functional
A549 [34] = assay: Cell cycle arrest in human A549 cells assessed as accumulation at S phase at […] after 24 hrs by propidium iodide staining based flow cytometry (reference value: 28 +/- 0.6%); format: functional
A549 [35] = assay: Cell cycle arrest in human A549 cells assessed as accumulation at G2/M phase at […] after 24 hrs by propidium iodide staining based flow cytometry (reference value: 10 +/- 0.8%); format: functional
[36] = target: Vascular endothelial growth factor receptor 2 (Homo sapiens) (UniProt P35968); assay: Inhibition of VEGFR2 internalization in HMEC1 cells assessed as membrane VEGFR2 level at 6 uM after 24 hrs by flow cytometry (reference value: 100%); format: cell-based; set-up: scale not given: the % may be the effect or the level left
[37] = target: Vascular endothelial growth factor receptor 2 (Homo sapiens) (UniProt P35968); assay: Inhibition of VEGFR2 internalization in HMEC1 cells assessed as total VEGFR2 level at 6 uM after 24 hrs by flow cytometry (reference value: 100%); format: cell-based; set-up: scale not given: the % may be the effect or the level left
[38] = target: Vascular endothelial growth factor receptor 2 (Homo sapiens) (UniProt P35968); assay: Inhibition of VEGFR2 internalization in HMEC1 cells at 6 uM after 24 hrs by immunofluorescence assay; format: cell-based

Vascular endothelial growth factor receptor 2 (Homo sapiens), sequence (P35968 whole entry): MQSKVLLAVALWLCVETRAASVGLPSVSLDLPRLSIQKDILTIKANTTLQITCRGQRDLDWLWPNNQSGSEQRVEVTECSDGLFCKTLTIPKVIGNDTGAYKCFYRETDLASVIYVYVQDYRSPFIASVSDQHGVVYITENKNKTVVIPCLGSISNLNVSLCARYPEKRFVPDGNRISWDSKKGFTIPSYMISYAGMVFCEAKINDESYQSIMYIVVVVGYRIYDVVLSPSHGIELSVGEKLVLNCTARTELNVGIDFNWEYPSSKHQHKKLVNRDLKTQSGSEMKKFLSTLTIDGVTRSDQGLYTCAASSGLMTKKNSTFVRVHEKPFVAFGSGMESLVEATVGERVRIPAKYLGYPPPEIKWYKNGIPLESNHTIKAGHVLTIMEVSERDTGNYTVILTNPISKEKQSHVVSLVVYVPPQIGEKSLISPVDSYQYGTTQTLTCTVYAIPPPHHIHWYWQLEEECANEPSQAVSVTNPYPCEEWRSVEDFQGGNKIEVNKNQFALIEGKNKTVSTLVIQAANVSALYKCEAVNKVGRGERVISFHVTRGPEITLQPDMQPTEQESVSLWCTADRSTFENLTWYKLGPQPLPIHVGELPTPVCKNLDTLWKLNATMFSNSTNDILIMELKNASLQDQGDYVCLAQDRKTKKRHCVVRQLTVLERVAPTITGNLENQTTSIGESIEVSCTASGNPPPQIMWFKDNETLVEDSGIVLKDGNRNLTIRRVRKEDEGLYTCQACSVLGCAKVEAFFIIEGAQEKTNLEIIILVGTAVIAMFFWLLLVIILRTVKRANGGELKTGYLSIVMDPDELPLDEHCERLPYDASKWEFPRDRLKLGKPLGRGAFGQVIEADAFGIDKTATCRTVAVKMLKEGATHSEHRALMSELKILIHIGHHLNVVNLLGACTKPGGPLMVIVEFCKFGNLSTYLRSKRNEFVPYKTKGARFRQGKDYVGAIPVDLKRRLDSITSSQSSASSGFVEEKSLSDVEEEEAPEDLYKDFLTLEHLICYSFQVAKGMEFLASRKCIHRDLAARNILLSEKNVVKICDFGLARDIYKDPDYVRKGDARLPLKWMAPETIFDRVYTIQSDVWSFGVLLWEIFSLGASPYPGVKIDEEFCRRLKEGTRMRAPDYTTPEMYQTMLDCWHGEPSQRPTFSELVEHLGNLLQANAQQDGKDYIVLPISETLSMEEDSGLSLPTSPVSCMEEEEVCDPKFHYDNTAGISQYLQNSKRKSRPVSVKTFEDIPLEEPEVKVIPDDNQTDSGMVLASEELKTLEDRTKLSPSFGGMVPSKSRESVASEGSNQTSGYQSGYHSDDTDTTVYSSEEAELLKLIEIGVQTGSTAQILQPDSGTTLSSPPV

Activity (Tubulin (Homo sapiens) [1]): Active
Activity [2]: 48%
Activity [3]: 80%
inhibition [4]: Active
inhibition [5]: Active
SMILES: COc1ccc(/C=C\c2cc(OC)c(OC)c(OC)c2)cc1NC(=O)Nc1ccccc1Br

IC50 (HL-60): 5 µM
IC50 (HMEC-1): 34 µM
SMILES: CNC(=O)c1cc(Oc2ccc(NC(=O)Nc3ccc(Cl)c(C(F)(F)F)c3)cc2)ccn1 [SORAFENIB]
Activity (A549 [6]): 38%
Activity (A549 [7]): 30%

Activity (Tubulin (Homo sapiens) [1]): Active
SMILES: COc1ccc(/C=C\c2cc(OC)c(OC)c(OC)c2)cc1NC(=O)Nc1cccc(Br)c1

Activity (Tubulin (Homo sapiens) [1]): Active
Activity [8]: 71%
Activity [9]: 97%
SMILES: COc1ccc(/C=C\c2cc(OC)c(OC)c(OC)c2)cc1NC(=O)Nc1cccc(Cl)c1C

Activity [10]: 80%
Activity [11]: 100%
inhibition [12]: Active
inhibition [13]: Active
SMILES: COc1ccc(/C=C\c2cc(OC)c(OC)c(OC)c2)cc1NC(=O)Nc1ccc(Cl)c(C)c1

Activity [14]: 62%
Activity [15]: 15%
inhibition [16]: Active
inhibition [17]: Active
SMILES: COc1ccc(/C=C\c2cc(OC)c(OC)c(OC)c2)cc1NC(=O)Nc1cc(C)cc(C)c1

Activity (Tubulin (Homo sapiens) [18]): Active
Activity [19]: 61%
Activity [20]: 148%
inhibition [21]: Active
inhibition [22]: Active
SMILES: COc1ccc(/C=C\c2cc(OC)c(OC)c(OC)c2)cc1NC(=O)Nc1ccc(C)c(C)c1

IC50 (HL-60): 7 µM
IC50 (HMEC-1): 7 µM
SMILES: CCN(CC)CCNC(=O)c1c(C)[nH]c(/C=C2\C(=O)Nc3ccc(F)cc32)c1C [SUNITINIB]
Activity (A549 [23]): 2.4%
Activity (A549 [24]): 47%
Activity (A549 [25]): 35%
Activity (A549 [26]): 16%
Activity (A549 [6]): 45%
Activity (A549 [7]): 38%

Activity (Tubulin (Homo sapiens) [27]): Active
Activity [28]: 71%
Activity [29]: 87%
inhibition [30]: Active
inhibition [31]: Active
SMILES: COc1ccc(/C=C\c2cc(OC)c(OC)c(OC)c2)cc1NC(=O)Nc1cccc(C)c1

SMILES: COc1ccc(/C=C\c2cc(OC)c(OC)c(OC)c2)cc1N
Activity (A549 [32]): 14%
Activity (A549 [33]): 21%
Activity (A549 [34]): 24%
Activity (A549 [35]): 41%
Activity (A549 [6]): 52%
Activity (A549 [7]): 32%

Activity [36]: 43%
Activity [37]: 46%
inhibition [38]: Active
inhibition [5]: Active
SMILES: COc1ccc(/C=C\c2cc(OC)c(OC)c(OC)c2)cc1NC(=O)Nc1ccccc1Cl
